# Laboratory results: patent US20150133297A1, “NEW ANTIFUNGAL COMPOSITIONS” (DSM IP ASSETS B.V., priority 2012, published 2015)
# Values joined by “and” are separate entries in the source; they are usually repeats but may differ in a detail not shown here. Identical values can stand only once.
# System: Penicillium italicum
# Assay: Treatment of oranges (Examples 6-9): wounded, inoculated, wound treated with antifungal composition
# Type: in vivo
# Details: for Observed antifungal activity O (%): oranges, 20° C.
# Experimental: During incubation, mould growth on the strawberries was assessed in a twofold manner: (i) the number of moulded strawberries per total of 12 strawberries was counted; and (ii) the antifungal activity (in %) of the individual and combined active ingredients was determined by calculating the reduction in mould growth observed on the strawberries treated with the antifungal composition in comparison to the mould growth on the strawberries treated with the control composition. The expected antifungal activity (E in %) of the combined antifungal composition comprising both active ingredients was calculated according to the Colby equation (Colby, 1967): […]
# Eight fresh, organic oranges were used per treatment. Each orange was soaked in a 180 ppm hypochlorite solution for 10 minutes, then rinsed thoroughly with fresh tap water and dried. The peel of each disinfected orange was wounded once using a cork borer according to the method described by de Lapeyre de Bellaire and Dubois (1987). Subsequently, each wound was inoculated with 10 μl of a Penicillium italicum suspension containing 5×10^5 of spores/ml. After incubation for 3 hours at 20° C., each wound and the orange peel area of 1 cm around the wound was treated with in total 150 μl of a freshly prepared aqueous antifungal composition comprising either 500 ppm natamycin (DSM Food Specialties, Delft, The Netherlands), 500 ppm fenpropidin or both. Each antifungal composition also comprised 3.2% (w/w) beeswax, 0.8% (w/w) glycerol, 0.7% (w/w) polyoxyethylene sorbitan monostearate (Tween 60), 0.1% (w/w) polyoxyethylene sorbitan monooleate (Tween 80), 0.05% (w/w) methylhydroxyethyl-cellulose (MHEC), 0.03% (w/w) anti-foaming agent, 0.02% (w/w) xanthan gum, 0.02% (w/w) citric acid, 0.01% (w/w) lactic acid and 0.01% potassium sorbate. A composition without natamycin or fenpropidin was used as control. […] The treated oranges were incubated in a closed box in the dark at 20° C. and assessed on mould growth during a 28-day incubation period. The antifungal activity (in %) of the individual and combined active ingredients was determined by calculating the reduction in mould growth observed on the oranges treated with the antifungal composition in comparison to the mould growth on the oranges treated with the control composition according to the Colby method (Colby, 1967) as described in Example 5.
# The experiment was conducted as described in Example 6, except for the fact that each wounded and inoculated orange was treated with 150 μl of a freshly prepared aqueous antifungal composition comprising either 250 ppm natamycin (DSM Food Specialties, Delft, The Netherlands), 250 ppm fenpropidin or both. During the 26-day incubation period, the treated oranges were assessed on mould growth according to the two methods described in Example 5.
# The experiment was conducted as described in Example 6, except for the fact that each wounded and inoculated orange was treated with 150 μl of a freshly prepared aqueous antifungal composition comprising either 500 ppm natamycin (DSM Food Specialties, Delft, The Netherlands), 400 ppm spiroxamine or both. During the 26-day incubation period, the treated oranges were assessed on mould growth according to the two methods described in Example 5.
# The experiment was conducted as described in Example 6, except for the fact that each wounded and inoculated orange was treated with 150 μl of a freshly prepared aqueous antifungal composition comprising either 250 ppm natamycin (DSM Food Specialties, Delft, The Netherlands), 200 ppm spiroxamine or both. During the 26-day incubation period, the treated oranges were assessed on mould growth according to the two methods described in Example 5.
structure (smiles),measurement,setting,value
"CCCN(CC)CC1COC2(CCC(C(C)(C)C)CC2)O1 (stereo not drawn) [Spiroxamine, spiroxamine]",Number of moulded oranges/total number of 8 oranges,"Day 11, 20° C., 250 ppm natamycin, 200 ppm spiroxamine or both",7 and 7/8
same,Number of moulded oranges/total number of 8 oranges,"Day 12, 20° C., 250 ppm natamycin, 200 ppm spiroxamine or both",8 and 8/8
same,Number of moulded oranges/total number of 8 oranges,"Day 13, 20° C., 250 ppm natamycin, 200 ppm spiroxamine or both",8/8
same,Number of moulded oranges/total number of 8 oranges,"Day 14-15, 20° C., 250 ppm natamycin, 200 ppm spiroxamine or both",8/8
same,Number of moulded oranges/total number of 8 oranges,"Day 14-16, 20° C., 500 ppm natamycin, 400 ppm spiroxamine or both",8/8
same,Number of moulded oranges/total number of 8 oranges,"Day 16, 20° C., 250 ppm natamycin, 200 ppm spiroxamine or both",8 and 8/8
same,Number of moulded oranges/total number of 8 oranges,"Day 18, 20° C., 250 ppm natamycin, 200 ppm spiroxamine or both",8 and 8/8
same,Number of moulded oranges/total number of 8 oranges,"Day 18, 20° C., 500 ppm natamycin, 400 ppm spiroxamine or both",8/8
same,Number of moulded oranges/total number of 8 oranges,"Day 19-21, 20° C., 500 ppm natamycin, 400 ppm spiroxamine or both",8 and 8/8
same,Number of moulded oranges/total number of 8 oranges,"Day 19-25, 20° C., 250 ppm natamycin, 200 ppm spiroxamine or both",8/8
same,Number of moulded oranges/total number of 8 oranges,"Day 22-23, 20° C., 500 ppm natamycin, 400 ppm spiroxamine or both",8 and 8/8
same,Number of moulded oranges/total number of 8 oranges,"Day 26, 20° C., 250 ppm natamycin, 200 ppm spiroxamine or both",8/8
same,moulded oranges of the 8 oranges,"after 14 through 16 days and 18 days of incubation, 500 ppm natamycin, 400 ppm spiroxamine",8
same,moulded oranges of the 8 oranges,"days 13 through 15, 250 ppm natamycin, 200 ppm spiroxamine or both",8
same,moulded oranges of the 8 oranges,"days 19 through 26, 250 ppm natamycin, 200 ppm spiroxamine or both",8
same,Observed antifungal activity O (%),"day 11, 250 ppm natamycin, 200 ppm spiroxamine or both",75%
same,Observed antifungal activity O (%),"day 12, 250 ppm natamycin, 200 ppm spiroxamine or both",64%
same,Observed antifungal activity O (%),"day 13, 250 ppm natamycin, 200 ppm spiroxamine or both",48%
same,Observed antifungal activity O (%),"day 14, 250 ppm natamycin, 200 ppm spiroxamine or both",39%
same,Observed antifungal activity O (%),"day 15, 250 ppm natamycin, 200 ppm spiroxamine or both",31%
same,Observed antifungal activity O (%),"day 16, 250 ppm natamycin, 200 ppm spiroxamine or both",20%
same,Observed antifungal activity O (%),"day 18, 250 ppm natamycin, 200 ppm spiroxamine or both",3%
same,Observed antifungal activity O (%),"day 18, 500 ppm natamycin, 400 ppm spiroxamine or both",22%
same,Observed antifungal activity O (%),"day 19, 250 ppm natamycin, 200 ppm spiroxamine or both",0%
same,Observed antifungal activity O (%),"day 19, 500 ppm natamycin, 400 ppm spiroxamine or both",8%
same,Observed antifungal activity O (%),"day 20, 250 ppm natamycin, 200 ppm spiroxamine or both",0%
same,Observed antifungal activity O (%),"day 20, 500 ppm natamycin, 400 ppm spiroxamine or both",0%
same,Observed antifungal activity O (%),"day 21, 250 ppm natamycin, 200 ppm spiroxamine or both",0%
same,Observed antifungal activity O (%),"day 21, 500 ppm natamycin, 400 ppm spiroxamine or both",0%
same,Observed antifungal activity O (%),"day 22, 250 ppm natamycin, 200 ppm spiroxamine or both",0%
same,Observed antifungal activity O (%),"day 22, 500 ppm natamycin, 400 ppm spiroxamine or both",0%
same,Observed antifungal activity O (%),"day 23, 250 ppm natamycin, 200 ppm spiroxamine or both",0%
same,Observed antifungal activity O (%),"day 23, 500 ppm natamycin, 400 ppm spiroxamine or both",0%
same,Observed antifungal activity O (%),"day 25-26, 500 ppm natamycin, 400 ppm spiroxamine or both",0%
same,Observed antifungal activity O (%),"day 25, 250 ppm natamycin, 200 ppm spiroxamine or both",0%
same,Observed antifungal activity O (%),"day 26, 250 ppm natamycin, 200 ppm spiroxamine or both",0%
